The test system of experiment [1] is proMMP-2 production by THP-1 cell. Nature of the experiment: Action on hemostatic type proMMP-2 production by THP-1 cell (ELISA of culture supernatant). It is filed as cell-based. As to conditions: Homo sapiens; THP-1 cells, no stimulation, 24 hr; IC50 from 0.1, 1 and 10 μmol/L; read-out: IC50 value (μmol/L), proMMP-2 production suppression. The procedure: Experimental Example 2: Action of THP-1 Cell on Hemostatic Type proMMP-2 Production
THP-1 cell (human monocytic leukemia cell line) was adjusted to 1×10^7 cells/mL in a culture medium (10% fetal bovine serum/RPMI1640 medium), and dispensed to a 96 well multiplate. This was equilibrated under the conditions of 37° C./5% CO2, and a culture medium dissolving a test compound was added thereto. After incubation under the conditions of 37° C./5% CO2 for 24 hr, the culture medium was centrifuged and the culture supernatant was collected, which was subjected to the following measurement.
Quantification of proMMP-2 in Culture Supernatant
The proMMP-2 concentration of the collected culture supernatant was quantified using a commercially available measurement reagent (manufactured by GE Healthcare, MMP-2, Human, Biotrak ELISA System).
Calculation of proMMP-2 Suppression Rate
The proMMP-2 suppression rate of the test compound was calculated from the following formula: % suppress=100−((Test/Cont)×100). wherein Cont is proMMP-2 concentration of culture supernatant without addition of a test compound (added with solvent alone) and Test is proMMP-2 concentration of culture supernatant with addition of a test compound. […]
A general note: In an ELISA, binding on a coated surface is turned into a signal by an enzyme label.

Experiment [2] relates to proMMP-9 production by human TNFα stimulated THP-1 cell. Nature of the experiment: Action on proMMP-9 production by human TNFα stimulated THP-1 cell (ELISA of culture supernatant). It is filed as cell-based. Conditions: THP-1 cells, human TNFα 10 ng/mL, 24 hr; IC50 from 3 concentrations (5, 50, 500 or 1, 10, 100 nmol/L); read-out: proMMP-9 suppression rate IC50. How it is done: Experimental Example 1: Action of Human TNFα Stimulated THP-1 Cell on proMMP-9 Production
THP-1 cell (human monocytic leukemia cell line) was adjusted to 1×10^7 cells/mL in a culture medium (10% fetal bovine serum/RPMI1640 medium), and dispensed to a 96 well multiplate. This was equilibrated under the conditions of 37° C./5% CO2, and a culture medium containing human TNFα (final concentration 10 ng/mL) and a test compound was dissolved therein. After incubation under the conditions of 37° C./5% CO2 for 24 hr, the culture medium was centrifuged and the culture supernatant was collected, which was subjected to the following measurement.
Quantification of proMMP-9 in Culture Supernatant
The proMMP-9 concentration of the collected culture supernatant was quantified using a commercially available measurement reagent (manufactured by GE Healthcare, MMP-9, Human, Biotrak ELISA System).
Calculation of proMMP-9 Suppression Rate
The proMMP-9 suppression rate of the test compound was calculated from the following formula: % suppression=100−((Test−Min)/(Max−Min)×100) wherein Max is proMMP-9 concentration of culture supernatant induced by stimulation with human TNFα, without addition of a test compound (added with solvent alone) Min is proMMP-9 concentration of culture supernatant without addition of a test compound (added with solvent alone) and without stimulation with human TNFα, and Test is proMMP-9 concentration of culture supernatant induced by stimulation with human TNFα when a test compound is added.
Furthermore, the concentration of the test compound necessary for suppressing proMMP-9 production by human TNFα stimulated THP-1 cell by 50% (IC50 value) was calculated from 3 points of proMMP-9 suppression rate at test compound concentrations of 5, 50 and 500 nmol/L or 1, 10 and 100 nmol/L.
MMP-9 is produced as a precursor proMMP-9 by the stimulated cells, extracellularly activated and expresses the physiological activity as MMP-9. That is, evaluation of the suppression of proMMP-9 produced by the cell means evaluation of the suppression of production of MMP-9. The same applies to MMP-2, and evaluation of the suppression of proMMP-2 produced by the cell means evaluation of the suppression of production of MMP-2.

The test system of experiment [3] is mouse dextran sulfuric acid induced colitis model. Nature of the experiment: Suppressive action on enteritis score (Disease Activity Index, DAI) of mouse dextran sulfuric acid induced colitis model. It is filed as in vivo. Conditions: mouse (C57BL/6J), oral, 30 mg/kg twice per day until day 10; AUC of DAI on days 3, 5, 7 and 10; pathology group 11.75 ± 1.18. The procedure: Experimental Example 4 Suppressive Action on Enteritis Score (Disease Activity Index, DAI) of Mouse Dextran Sulfuric Acid Induced Colitis Model
Mice (C57BL/6J, male, 6-week-old) were allowed to freely ingest 2.0% (w/v) dextran sulfuric acid solution for 5 days, the solution was exchanged with water, and pathology was evaluated on day 10. The test compound was orally administered twice per day at a dose of 30 mg/kg for 5 days of dextran sulfuric acid solution ingestion and thereafter until day 10. On days 3, 5, 7 and 10 from the start of the test, the body weight decrease, stool consistency, and the state of occult blood or gross bleeding were respectively scored in 0-4 points, and the mean of the total score was taken as Disease Activity Index (DAI), an index of enteritis pathology. The diagnostic criteria of the stool consistency score and occult blood or gross bleeding score were as follows.
The evaluation results are shown by the area under the curve (AUC) calculated using DAI on days 3, 5, 7 and 10.

Experiment [4] deals with rat monoiodoacetic acid-induced osteoarthritis model. Description: Suppressive action on joints injury marker COMP in rat monoiodoacetic acid-induced osteoarthritis model. It is filed as in vivo. As to conditions: for Joints injury marker COMP suppression rate (%): oral. How it is done:
Experimental Example 3 Suppressive Action on Articular Joints Injury Marker Free of Rat Monoiodoacetic Acid-Induced Osteoarthritis Model
Monoiodoacetic acid solution (0.3 mg/25 μL) was injected into the right hindpaw knee joint cavity of anesthetized rats (LEW, male, 7-week-old). […] On day 5, cold phosphate buffer (20 μL) was injected into the right hindpaw knee joint cavity of the euthanized rats, and the joint cavity washing was collected. The joints injury marker COMP (Cartilage Oligomeric Matrix Protein) concentration of the joint cavity washing was quantified using a commercially available measurement reagent (Animal COMP ELISA Kit manufactured by Anamer Medical).
Calculation of Joints Injury Marker COMP Suppression Rate
The COMP suppression rate of the test compound was calculated from the following formula: % suppression=100−((Test−Min)/(Max−Min)×100) wherein Max is a COMP concentration of the joint cavity washing of the pathology group administered with a monoiodoacetic acid solution (oral administration of solvent alone), Min is a COMP concentration of the joint cavity washing of the non-treatment normal group (oral administration of solvent alone), and Test is a COMP concentration of the joint cavity washing of the test compound administration group.

The structures appear in SMILES notation.

Consider `Cc1cnc(N2CCN(C(=O)c3ccc([C@@]4(C)NC(=O)NC4=O)cc3)CC2)c(C)c1` [Example 1, (R)-5-{4-[4-(3,5-dimethylpyridin-2-yl)piperazine-1-carbonyl]phenyl}-5-methylimidazolidine-2,4-dione], for which the IC50 in experiment [1] is above 10 µmol/L; in experiment [2] it was 27 nM. Besides, the “DAI (AUC)” value in experiment [3] stood at 9.78 ± 0.80. Also, the “Joints injury marker COMP suppression rate (%)” value in experiment [4] (rat (LEW), 1 mg/kg once per day, joint cavity washing on day 5) turned out to be 80.9%. The “superiority in joints injury marker COMP suppression rate compared with Example 450 described in patent document 3” value in experiment [4] (rat monoiodoacetic acid model, both at 1 mg/kg once per day) is “at least 5 fold”.

On to `Cc1cnc(N2CCN(C(=O)c3ccc([C@@]4(C(C)C)NC(=O)NC4=O)cc3)CC2)c(C)c1` [Example 8, (R)-5-{4-[4-(3,5-dimethylpyridin-2-yl)piperazine-1-carbonyl]phenyl}-5-isopropylimidazolidine-2,4-dione], for which the “Joints injury marker COMP suppression rate (%)” value in experiment [4] (rat (LEW), 0.1 mg/kg once per day, joint cavity washing on day 5) is recorded as 84.3%. The “superiority in joints injury marker COMP suppression rate compared with Example 571 described in patent document 3” value in experiment [4] (rat monoiodoacetic acid model, 0.1 mg/kg versus 3 mg/kg once per day) was “at least 30 fold”.

For `CC(C)[C@]1(c2ccc(C(=O)N3CCC(c4nnc(-c5ccccc5)s4)CC3)cc2)NC(=O)NC1=O` [Example 227, (R)-5-isopropyl-5-{4-[4-(5-phenyl[1,3,4]thiadiazol-2-yl)piperidine-1-carbonyl]phenyl}imidazolidine-2,4-dione], the IC50 in experiment [2] was 84 nM.

On to `CC(C)[C@]1(c2ccc(C(=O)N3CCN(c4nc5ccccc5n4C)CC3)cc2)NC(=O)NC1=O` [Example 243, (R)-5-isopropyl-5-{4-[4-(l-methyl-1H-benzimidazol-2-yl)piperazine-1-carbonyl]phenyl}imidazolidine-2,4-dione], for which, in experiment [2], the IC50 amounted to 27 nM.

As for `CC(C)[C@]1(c2ccc(C(=O)N3CCC(c4ncc(-c5ccccc5)s4)CC3)cc2)NC(=O)NC1=O` [Example 259, (R)-5-isopropyl-5-{4-[4-(5-phenylthiazol-2-yl)piperidine-1-carbonyl]phenyl}imidazolidine-2,4-dione], in experiment [2], the IC50 turned out to be 60 nM.

Take `CC(C)[C@]1(c2ccc(C(=O)N3CCC(c4nc5cc(C(F)(F)F)ccc5s4)CC3)cc2)NC(=O)NC1=O` [Example 262, (R)-5-isopropyl-5-{4-[4-(5-trifluoromethylbenzothiazol-2-yl)piperidine-1-carbonyl]phenyl}imidazolidine-2,4-dione]: in experiment [2], the IC50 was found to be 13 nM.

In the case of `Cc1ccc2nc(C3CCN(C(=O)c4ccc([C@@]5(C)NC(=O)NC5=O)cc4)CC3)oc2c1` [Example 267, (R)-5-methyl-5-{4-[4-(6-methylbenzoxazol-2-yl)piperidine-1-carbonyl]phenyl}imidazolidine-2,4-dione], in experiment [2], the IC50 came to 5 nM.

`Cc1cc(C)c2c(cnn2C2CCN(C(=O)c3ccc([C@@]4(C(C)C)NC(=O)NC4=O)cc3)CC2)c1` [Example 272, (R)-5-{4-[4-(5,7-dimethylindazol-1-yl)piperidine-1-carbonyl]phenyl}-5-isopropylimidazolidine-2,4-dione]: in experiment [2], the IC50 is below 5 nM.

For the compound `Cc1cc(F)c2c(C3CCN(C(=O)c4ccc([C@@]5(C)NC(=O)NC5=O)cc4)CC3)n[nH]c2c1` [Example 280, (R)-5-{4-[4-(4-fluoro-6-methyl-1H-indazol-3-yl)piperidine-1-carbonyl]phenyl}-5-methylimidazolidine-2,4-dione], in experiment [2], the IC50 was below 5 nM.

Regarding `Cc1cc(C2CC2)cnc1N1CCN(C(=O)c2ccc(C3(C4CCC4)NC(=O)NC3=O)cc2)CC1` (stereo not shown) [Example 322, 5-cyclobutyl-5-{4-[4-(5-cyclopropyl-3-methylpyridin-2-yl)piperazine-1-carbonyl]phenyl}imidazolidine-2,4-dione], the IC50 in experiment [2] is below 1 nM.

In the case of `Cc1cnc(N2CCN(C(=O)c3ccc(C4(C(C)(C)C)NC(=O)NC4=O)cn3)CC2)c(C)c1` (stereo not shown) [Example 335, 5-tert-butyl-5-{6-[4-(3,5-dimethylpyridin-2-yl)piperazine-1-carbonyl]pyridin-3-yl}imidazolidine-2,4-dione], the IC50 in experiment [2] is 1 nM.

As to `COCC1(c2ccc(C(=O)N3CCC(c4coc5cc(C)cc(C)c45)CC3)cn2)CC(=O)NC1=O` (stereo not shown) [Example 343, 3-{5-[4-(4,6-dimethyl-benzofuran-3-yl)piperidine-1-carbonyl]pyridin-2-yl}-3-methoxymethyl-pyrrolidine-2,5-dione], the IC50 in experiment [2] was below 3 nM.

For `Cc1ccc2c(C3CCN(C(=O)c4ccc([C@@]5(C)NC(=O)NC5=O)cc4)CC3)c[nH]c2c1` [Example 345, (R)-5-methyl-5-{4-[4-(6-methyl-1H-indol-3-yl)piperidine-1-carbonyl]phenyl}imidazolidine-2,4-dione], in experiment [2], the IC50 came to 15 nM.

As for `Cc1ccc(-c2cnn(C3CCN(C(=O)c4ccc([C@@]5(C)NC(=O)NC5=O)cc4)CC3)c2)cc1` [Example 346, (R)-5-methyl-5-{4-[4-(4-p-toluylpyrazol-1-yl)piperidine-1-carbonyl]phenyl}imidazolidine-2,4-dione], in experiment [2], the IC50 came out at 88 nM.

`CC(=O)OCN1C(=O)N[C@](C)(c2ccc(C(=O)N3CCC(n4cc5cc(C)cc(C)c5n4)CC3)cc2)C1=O` [Example 350, acetic acid (R)-4-{4-[4-(5,7-dimethylindazol-2-yl)piperidine-1-carbonyl]phenyl]-4-methyl-2,5-dioxoimidazolidin-1-ylmethyl ester]: the IC50 in experiment [2] turned out to be 115 nM.

Regarding `Cc1cnc(N2CCN(C(=O)c3ccc(N4C(=O)NC(=O)C4C)cc3)CC2)c(C)c1` (stereo not shown) [Example 450, reference compound], the “Joints injury marker COMP suppression rate (%)” value in experiment [4] (comparison compound of patent document 3 (WO 2011/136292), rat, 1 mg/kg once per day) is 14.4%.

With `Cc1cnc(N2CCN(C(=O)c3ccc(N4C(=O)NC(=O)C4C(C)C)cc3)CC2)c(C)c1` (stereo not shown) [Example 571, reference compound], the “Joints injury marker COMP suppression rate (%)” value in experiment [4] (comparison compound of patent document 3 (WO 2011/136292), rat, 3 mg/kg once per day) came to 55.3%.

The record behind these values is patent US10407408B2, “Imide derivatives and use thereof as medicine” (MITSUBISHI TANABE PHARMA CORPORATION, priority 2015, dated 2019).
